# Measurements published in patent US12673987B2, “Method to identify compounds useful to treat dysregulated lipogenesis, diabetes, and related disorders” (President and Fellows of Harvard College, priority 2017, dated 2026).
# T1: aP2 (Mus musculus, UniProt P04117)
# T1 sequence (P04117 1-132): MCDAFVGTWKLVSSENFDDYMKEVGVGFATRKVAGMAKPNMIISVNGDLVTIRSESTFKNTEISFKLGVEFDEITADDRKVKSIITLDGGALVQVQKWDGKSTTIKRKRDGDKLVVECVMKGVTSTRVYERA
# B1: aP2: delipidated mouse recombinant aP2 protein (adipocyte lipid binding protein) (protein)
# chain: CDAFVGTWKLVSSENFDDYMKEVGVGFATRKVAGMAKPNMIISVNGDLVTIRSESTFKNTEISFKLGVEFDEITADDRKVKSIITLDGGALVQVQKWDGKSTTIKRKRDGDKLVVECVMKGVTSTRVYERA
# B2: CA33: therapeutically active aP2 monoclonal antibody; the rabbit 909 heavy and light chain comprise CA33 (antibody, V domains shown)
# VH: QSVEESGGRLVTPGTPLTLTCTVSGFSLSTYYMSWVRQAPGKGLEWIGIIYPSGSTYCASWAKGRFTISKASTTVDLKITSPTTEDTATYFCARPDNDGTSGYLSGFGLWGQGTLVTVSS
# VL: DVVMTQTPASVSEPVGGTVTIKCQASEDISRYLVWYQQKPGQPPKRLIYKASTLASGVPSRFKGSGSGTDFTLTISDLECDDAATYYCQCTYGTYAGSFFYSFGGGTEVVVE
# modifications: Rabbit Ab 909 VH region; Rabbit Ab 909 VL-region
# How the values were obtained:
# aP2 [1] = molecular target: T1, aP2; assay: Microscale thermophoresis assay; assay type: binding; design: His tag (cleaved yes); made in house; conditions: fluorescence labeled purified aP2 protein
# Description: It has been reported that both 2-AG and AEA have similar affinity for the CB1 receptor (Stella et al., (1997) Nature 388, 773-778; Felder et al., (1993) PNAS 90, 7656-7660), and only the level of 2-AG in serum is regulated in obesity (Bluher et al., (2006) Diabetes 55, 3053-3060). The potential interaction between 2-AG and aP2 was tested. […] Finally, to resolve the mechanism and structural determinants of this interaction, aP2 and 2-AG was co-crystallized, confirming the ability of these two molecules to bind. In Ca superposition, the root mean square deviation (RMSD) between mouse 2-AG/FABP4 complex and apo mouse FABP4 structure was about 0.548 A (see FIG. 3G). […] Due to steric hindrance of the acyl chain of 2-AG, the Phe57 side chain was modelled as open position in the complex structure. The polar head group of 2-AG was stabilized by hydrogen bond interactions with R127, R107, Y129 and S54 of FABP4 (see FIG. 3H).
# HepG2 cells [2] = assay: De novo lipogenesis (DNL) in HepG2 cells treated with conditioned media from lipolysis-stimulated adipocytes (3H2O incorporation); assay type: cell-based, human
# Description: Murine 3T3L1 adipocytes and human HepG2 cells were obtained from the ATCC. 3T3L1 adipocytes were maintained in Dulbecco Modified Eagle Medium (DMEM) containing 25 mM glucose (Gibco) supplemented with 10% cosmic calf serum (CCS), and adipocyte differentiation was induced as previously described (Ntambi et al., (1988) J. Biol. Chem. 263, 17291-17300). Briefly, preadipocytes were grown in 10 cm dishes until they are fully confluent. At confluent state, 10% bovine calf serum (BCS) containing DMEM medium was replaced with 10% fetal bovine serum (FBS) containing DMEM for two days. Differentiation was induced by FBS medium containing 5 μg/ml Insulin (Sigma, 15500), 0.5 mM IBMX (Sigma, 15879), 1 μM Dexamethasone (Sigma, D4902), and 1 μM Rosiglitazone (Cayman Chemical, 71740). After two days, medium was replaced with FBS medium containing 5 μg/ml Insulin every other day until the cells were completely differentiated at day 10. For siRNA experiment, differentiated 3T3-L1 adipocytes were transfected using Amaxa Nucleofector Kit L (Lonza, VCA-1005) according to the manufacturer's protocol. Briefly, differentiated adipocytes were trypsinized and centrifuged at 100 g for 10 minutes. 3×10^6 cells per 6-well were transfected with 120 pmol/sample Control siRNA (Dharmacon, D-001810-10) or mouse aP2 siRNA (Dharmacon, L-042923-01) using Nucleofector Program A-33. Transfected cells were seeded in Collagen I coated 6-well plates (Corning, 356400). Conditioned media for stimulation of HepG2 cells were prepared in DMDM 3.3 mM glucose supplemented with 0.5% FBS before (basal) and after (lipolysis stimulated) the lipolysis stimulation with 1 mM IBMX. For explant studies, adipose tissue was removed from 8-12 weeks-old littermate mice, minced and washed 5× with DMEM high glucose supplemented with 10% CCS. Twenty pieces of adipose tissue were placed into 6-well plates in 2 ml DMEM high glucose with 10% CCS and incubated for 1 hr. Then conditioned media for stimulation of HepG2 cells were prepared in […] 3.3 mM glucose supplemented with 0.5% FBS before (basal) and after (lipolysis stimulated) the lipolysis stimulation with 1 mM 3-isobutyl-1-methylxanthine (IBMX). For antibody neutralization, 10 nM (for 3T3L1 cells) or 20 nM (for adipose tissue explant) of IgG, CA33, or CA15 antibody was added to DMDM 3.3 mM glucose supplemented with 0.5% FBS was used for the preparation of “basal” and “lipolysis stimulated” conditioned media.
# (§1) For maintenance, HepG2 cells were cultured in DMEM containing 5.5 mM glucose (Gibco) supplemented with 10% FBS. For DNL and p-AMPK analysis, HepG2 cells were cultured in DMDM 3.3 mM glucose supplemented with 0.5% FBS, seeded 2×10^5 cells in 12 well plate or 4×10^5 cells in 6 well plate for DNL analysis and p-AMPK analysis, respectively.
# For DNL analysis, after overnight culture, the cells were stimulated with conditioned media or 2-AG/aP2 complex and […] of ^3H2O were added 30 min after the stimulation (Gnoni et al., (1985) Biochem. & Biophysical Res. Comm. 128, 525-530; Lowenstein et al., Meth. Enzym. 35, 279-287). […] The cell lysate was analyzed for protein concentration and total lipid was extracted by Dole's extraction method (Dole et al., (1960) J. Biol. Chem. 235, 2595-2599). ^3H incorporation into de novo synthesized lipids were analyzed by scintillation count and calculated as count per μg protein. […] AMPK phosphorylation was determined by western blot (see below).
# 3T3L1 adipocytes [3] = assay: FFA release from 3T3L1 adipocytes; assay type: cell-based, murine; conditions: adipocytes pretreated with 10 μM, starting 48 hours before collection of conditioned media
# Description: (§2) Murine 3T3L1 adipocytes and human HepG2 cells were obtained from the ATCC. 3T3L1 adipocytes were maintained in Dulbecco Modified Eagle Medium (DMEM) containing 25 mM glucose (Gibco) supplemented with 10% cosmic calf serum (CCS), and adipocyte differentiation was induced as previously described (Ntambi et al., (1988) J. Biol. Chem. 263, 17291-17300). Briefly, preadipocytes were grown in 10 cm dishes until they are fully confluent. At confluent state, 10% bovine calf serum (BCS) containing DMEM medium was replaced with 10% fetal bovine serum (FBS) containing DMEM for two days. Differentiation was induced by FBS medium containing 5 μg/ml Insulin (Sigma, 15500), 0.5 mM IBMX (Sigma, 15879), 1 μM Dexamethasone (Sigma, D4902), and 1 μM Rosiglitazone (Cayman Chemical, 71740). After two days, medium was replaced with FBS medium containing 5 μg/ml Insulin every other day until the cells were completely differentiated at day 10. For siRNA experiment, differentiated 3T3-L1 adipocytes were transfected using Amaxa Nucleofector Kit L (Lonza, VCA-1005) according to the manufacturer's protocol. […]
# Triglyceride (TG) levels were analyzed using triglyceride assay kit (Randox) and Cholesterol levels were analyzed using by Infinity cholesterol kid (Thermo Scientific). FFA levels in culture media were measured using a NEFA-HR2 kit (Wako) following the manufacturer's instructions.
# 3T3L1 adipocytes [4] = assay: aP2 secretion from 3T3L1 adipocytes into conditioned media; assay type: cell-based, murine; conditions: adipocytes pretreated with 10 μM, starting 48 hours before collection of conditioned media
# Description: as §2, with “protocol. Briefly, differentiated adipocytes were trypsinized and centrifuged at 100 g for 10 minutes. 3×10^6 cells per 6-well were transfected with 120 pmol/sample Control siRNA (Dharmacon, D-001810-10) or mouse aP2 siRNA (Dharmacon, L-042923-01) using Nucleofector Program A-33.” for “protocol.”
# HepG2 cells [5] = assay: DNL in HepG2 cells stimulated with 2-AG/aP2 complex (3H2O incorporation); assay type: cell-based, human; conditions: for stimulation of DNL in HepG2 cells: final concentration in culture media 10 nM
# Description: as §1
# For DNL analysis, after overnight culture, the cells were stimulated with conditioned media or 2-AG/aP2 complex and […] of ^3H2O were added 30 min after the stimulation (Gnoni et al., (1985) Biochem. & Biophysical Res. Comm. 128, 525-530; Lowenstein et al., Meth. Enzym. 35, 279-287). After 2 hours of incubation with ^3H2O, cells were washed with PBS and lysed with 0.1N NaOH. The cell lysate was analyzed for protein concentration and total lipid was extracted by Dole's extraction method (Dole et al., (1960) J. Biol. Chem. 235, 2595-2599). ^3H incorporation into de novo synthesized lipids were analyzed by scintillation count and calculated as count per μg protein. For p-AMPK analysis, after overnight culture, cells were stimulated with conditioned media or 2-AG/aP2 complex for 30 min. The cells were washed twice with ice cold PBS and lysed with ice cold RIPA buffer (Cell Signaling) supplemented with 1 mM PMSF. AMPK phosphorylation was determined by western blot (see below).
# (§3) 10 or 20 μM delipidated mouse recombinant aP2 protein with or without 10 μM 2-AG were diluted in 50 mM potassium phosphate buffer (pH 7.4) and incubated at 37C for overnight. The ratio of aP2 binding to 2-AG was determined by 8-Anilinonaphthalene-1-sulfonic acid (ANS) assay. For antibody neutralization, IgG, CA33, or CA15 antibody at final concentration of 20 μM was added to 50 mM potassium phosphate buffer (pH 7.4) only or to delipidated mouse recombinant aP2 protein (final 10 μM) with 2-AG (final 10 μM) solution in 50 mM potassium phosphate buffer (pH 7.4) and incubated at 37° C. overnight. Final concentration in culture media for aP2, 2-AG, and antibodies were 10, 10, and 20 nM, respectively.
# AMPK(Thr172) = assay: AMPK phosphorylation in HepG2 cells by western blot; assay type: cell-based, human; conditions: 5 μM alone
# Description: as §1
# For DNL analysis, after overnight culture, the cells were stimulated with conditioned media or 2-AG/aP2 complex and […] of ^3H2O were added 30 min after the stimulation (Gnoni et al., (1985) Biochem. & Biophysical Res. Comm. 128, 525-530; Lowenstein et al., Meth. Enzym. 35, 279-287). After 2 hours of incubation with ^3H2O, cells were washed with PBS and lysed with 0.1N NaOH. The cell lysate was analyzed for protein concentration and total lipid was extracted by Dole's extraction method (Dole et al., (1960) J. Biol. Chem. 235, 2595-2599). ^3H incorporation into de novo synthesized lipids were analyzed by scintillation count and calculated as count per μg protein. […] AMPK phosphorylation was determined by western blot (see below).
# The antibodies used were rabbit anti-pAMPK (Cell Signaling), anti-actin HRP conjugated (Abcam), in-house anti-aP2 (H3) HRP conjugated antibodies. For quantification, Western blot images were captured and band intensities were analyzed using ImageJ software.
# aP2 [6] = molecular target: T1, aP2; assay: 8-Anilinonaphthalene-1-sulfonic acid (ANS) binding assay; design: His tag (cleaved yes); made in house; host or cells: Escherichia coli BL21DE3 (Pet28a plasmid)
# Description: as §3
# aP2 or aP2/lipid solution (final aP2 concentration 1 μM) and ANS (final 5 μM) was diluted in 50 mM potassium phosphate buffer (pH 7.4) and fluorescence Ex/Em 375/475 was measured.
molecule,measurement,setting,value
CCCCCCCC/C=C\CCCCCCCC(=O)O [oleate],Kd of direct binding to aP2,aP2 [1],an affinity similar to that observed for oleate
CCc1c(-c2ccccc2)c(-c2ccccc2)nn1-c1ccccc1-c1cccc(OCC(=O)O)c1 [BMS-309403],ability of conditioned media from lipolysis-stimulated 3T3L1 adipocytes to induce DNL in HepG2 cells,"HepG2 cells [2]; 3T3L1 adipocytes pretreated with 10 μM, starting 48 hours before collection",completely inhibited
same,effect on DNL in HepG2 cells treated with conditioned media from Fabp-deficient adipocytes,HepG2 cells [2]; Fabp-deficient adipocytes pre-incubated with 10 μM,no additional or Fabp-independent effect on DNL
same,FFA secretion,3T3L1 adipocytes [3],did not alter
same,aP2 secretion,3T3L1 adipocytes [4],did not alter
same,effect of 2-AG/aP2 complex on DNL in HepG2 cells,HepG2 cells [5]; added during 2-AG/aP2 complex formation,eliminated the effect of 2-AG/aP2 complex on DNL
Cc1c(C(=O)NN2CCCCC2)nn(-c2ccc(Cl)cc2Cl)c1-c1ccc(Cl)cc1 [Rimonabant],induction of DNL by conditioned media from lipolysis-stimulated 3T3L1 adipocytes,HepG2 cells [2]; HepG2 cells treated with 1 μM,completely inhibited induction of DNL
"CCCCC/C=C\C/C=C\C/C=C\C/C=C\CCCC(=O)OC(CO)CO [2-AG, 2-Arachidonoylglycerol]",stimulation of DNL in HepG2 cells,HepG2 cells [5],nor 2-AG alone stimulated DNL
same,dephosphorylation of AMPK(Thr172) in HepG2 cells,AMPK(Thr172),same level
same,binding of 2-AG to aP2 by ANS assay,aP2 [6]; after overnight incubation of delipidated recombinant aP2 with 2-AG,confirmed binding
same,"binding affinity of aP2 to the lipid, substrate competition with ANS",aP2 [6]; compared with mall (Fabp5),same affinity as does mall
B1,rescue of DNL in HepG2 cells,HepG2 cells [2]; added to conditioned media from 3T3L1 adipocytes with siRNA-mediated aP2 suppression,not sufficient to rescue DNL
same,stimulation of DNL in HepG2 cells,HepG2 cells [5],neither aP2 nor 2-AG alone stimulated DNL
B2,induction of DNL by conditioned media from lipolysis stimulated adipocytes in HepG2 cells,"HepG2 cells [2]; antibody (10 nM for 3T3L1 cells) added to conditioned media, IBMX lipolysis stimulation",completely prevented the induction of DNL
same,ability of 2-AG/aP2 complex to regulate DNL in HepG2 cells,"HepG2 cells [5]; complex formed in the presence of antibody (20 μM, final 20 nM in culture media)",lost its ability to regulate DNL
